Data set [1] has as its system Balb/c splenocytes (resting lymphocytes). As to the kind of experiment: Lymphocyte viability (LcV) assay. Type of data set: cell-based, murine. The following applies: unstimulated Balb/c splenocytes, MTT. Here is the method: Forty two (42) didemnin compounds (see Table 1) were evaluated for cytotoxicity to one of the lymphocyte populations in the MLR (i.e., Balb/c splenocytes). The purpose of the lymphocyte viability assay (LcV) is to measure metabolic activity in lymphocytes after they have been exposed to the compounds for the duration of an under conditions equivalent to the MLR. The inverse of the data yields cytotoxicity information about the compounds on murine lymphocytes. The rationale of using resting cells, in this case unstimulated lymphocytes, to measure cytotoxicity has a strategic importance. In the MLR the heterogenous cell populations are predominantly resting cells when the assay begins.
Test compounds were prepared in two sets as described above. Splenocytes were prepared as described previously from one murine strain (Balb/c), and a volume of 200 μL of the cell suspension was added to one set of test compounds and control wells.
Assay plates were incubated as in the MLR and then pulsed overnight 75 μL per well MTT-thiazolyl blue solution (150 μg). The plates were decanted and the resulting insoluble formazan crystals were dissolved in 200 μL of isopropyl alcohol. Absorbance at 570 nm was measured.
The LcV data were calculated as a percentage of basal metabolic activity, or percent viability, relative to BALB/c control, and an LC50 value was interpolated for each test compound.

The test system of data set [2] is murine splenocytes (Balb/c and C57B1/6). As to the kind of experiment: Two-way mixed lymphocyte reaction (MLR) assay.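 For all read-outs here: proliferation read as tritiated thymidine incorporation into newly made DNA after an overnight pulse, expressed as percent of control activity, IC50 interpolated per compound.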 As to conditions: Balb/c + C57B1/6 splenocytes, 96 h, [3H]thymidine; for IC50: read-out: two-way mixed lymphocyte reaction (MLR) suppression MLR, IC50.
Data set [3] deals with concanavalin A-induced lymphoblasts (Con A splenocytes). Nature of the data set: Lymphoblast viability (LbV) assay. The following applies: Con A-stimulated splenocytes (lymphoblasts), MTT.
Data set [4] deals with CB6F1 mice grafted with Balb/c splenocytes. As to the kind of experiment: Graft vs host reaction (GVHR) splenomegaly assay. Type of data set: in vivo. The following applies: 200 mg/Kg/day, QD 1-7, ip. Here is the method:
Three representative compounds didemnin M (38), O-pGlu-DB (37), and didemnin B (1)-showing high (37,38) or moderate (1) in vivo immunosuppressive activity were subsequently evaluated in a multidose assay (0.16,0.016, and 0.0016 mg/kg per injection; qd 1-7) for their in vivo immunosuppressive effects on the GVHR splenomegaly assay.
Three didemnins (didemnin B, didemnin M, and pGlu-didemnin B) were evaluated in a modified Simonsen splenomegaly assay. Briefly, an F1 hybrid host animal is grated with immunocompetent spleen cells from the parent strain. The index used to measure the success of the GVHR is splenomegaly (increased spleen weight due to cellular proliferation of grafted lymphocytes). An index>1.3 (graft index) is considered to be a successful graft rejection of the recipient animal. Immunosuppression is considered as a reduction of the graft index.
On day O, CB6F1 female mice, 4 weeks of age, were grated by intraperitoneal (ip) injection of 50×10^5 splenocytes from BALB/c female mice in high-glucose ([…]) Dulbecco's modified Eagles medium. A syngeneic control group (CB6F1 --CB6F1) was similarly prepared and served as the negative control. Grafted mice were divided into treatment groups containing six mice each. Groups were injected ip with test compound (dissolved in vehicle; 1% abs. EtOH in sterile phosphate-buffered saline) at one of three dose levels (0.16, 0.016, and 0.0016 mg/kg per injection) in a multidose assay, cyclophosphamide (200 mg/kg per injection) or vehicle on days 1-7 (qd 1-7). On day 8 all groups were sacrificed, spleens were excised, and a graft index was calculated for each group by the following formula: [formula]

The IC50 is the concentration that inhibits the measured activity by half.

Numbered stars: 1 amine (or outer) side, 2 acyl side, 3 side chain; on linkers, the order of the positions; unused ones are H or OH. Bridge positions count the residues as written; N and C are the ends. Square brackets hold non-standard residues; d marks the D form. Peptide text beside a SMILES is read from it. * marks the point of attachment. X4 = CC[C@H](C)[C@@H](N[*:1])[C@@H](O)CC(=O)O[C@@H](C(C)C)[C@H](O)[C@H](C)C(=O)[*:2]; X2 = CC[C@H](C)[C@@H](N[*:1])[C@@H](O)CC(=O)O[C@@H](C(=O)[C@H](C)C(=O)[*:2])C(C)C; X5 = CC[C@@H](C)[C@@H](N[*:1])[C@@H](O)CC(=O)O[C@H](C(=O)[C@H](C)C(=O)[*:2])C(C)C; X1 = CC[C@H](C)[C@@H](N[*:1])[C@@H](O)CC(=O)O[C@H](C(=O)[C@H](C)C(=O)[*:2])C(C)C; X3 = CC[C@H](C)[C@H](N[*:1])[C@@H](O)CC(=O)O[C@H](C(=O)[C@H](C)C(=O)[*:2])C(C)C; X6 = CC[C@H](C)[C@@H](N[*:1])[C@H](O)CC(=O)O[C@H](C(=O)[C@H](C)C(=O)[*:2])C(C)C; NMeY = CN[C@@H](Cc1ccc(O)cc1)C(=O)O; dNMeL = CN[C@H](CC(C)C)C(=O)O; Cbz = O=C(OCc1ccccc1)*

With `CC[C@H](C)[C@H]1NC(=O)[C@@H](NC(=O)[C@@H](CC(C)C)NC)[C@@H](C)OC(=O)[C@H](Cc2ccc(OC)cc2)N(C)C(=O)[C@@H]2CCCN2C(=O)[C@H](CC(C)C)NC(=O)[C@@H](C)C(=O)[C@H](C(C)C)OC(=O)C[C@@H]1O` [Compound 2, Didemnin A] (H-[dNMeL]T[X1]LP[NMeY](Me); ester 2-C), the “cytoxicity to lymphocytes LcV, LC50” value in data set [1] was above 11.0 µM. For the same molecule, in data set [1] (highest concentration 10 μg/mL), the “cytoxicity to lymphocytes LcV, LC50” value was above 10 µg/mL. In addition, in data set [2], the “two-way mixed lymphocyte reaction (MLR) suppression MLR, IC50” value (“two-way mixed lymphocyte reaction” below) came to 0.93 ng/mL and the IC50 turned out to be 0.98 nM. Also, in data set [3], the “cytotoxicity to lymphocytes LbV, LC50” value amounted to 0.015 µM.
In the same order, the values of `CC[C@H](C)[C@H]1NC(=O)[C@@H](NC(=O)[C@@H](CC(C)C)N(C)C(=O)OCc2ccccc2)[C@@H](C)OC(=O)[C@H](Cc2ccc(OC)cc2)N(C)C(=O)[C@@H]2CCCN2C(=O)[C@H](CC(C)C)NC(=O)[C@@H](C)C(=O)[C@H](C(C)C)OC(=O)C[C@@H]1O` [Compound 3, Z-Didemnin A] (Cbz-[dNMeL]T[X1]LP[NMeY](Me); ester 2-C) are 7.50 µM, 8.10 µg/mL, 1.10 ng/mL, 1.02 nM and 0.0019 µM.
In the case of `CC[C@H](C)[C@H]1NC(=O)[C@@H](NC(=O)[C@@H](CC(C)C)N(C)C(=O)OCc2ccccc2)[C@@H](C)OC(=O)[C@H](Cc2ccc(OC)cc2)N(C)C(=O)[C@@H]2CCCN2C(=O)[C@H](CC(C)C)NC(=O)[C@@H](C)C(=O)[C@H](C(C)C)OC(=O)C[C@H]1O` [Compound 4, Z-[(3R,4R,5S)Ist^2]Didemnin A] (Cbz-[dNMeL]T[X6]LP[NMeY](Me); ester 2-C), in data set [1], the “cytoxicity to lymphocytes LcV, LC50” value turned out to be 9.00 µM. For the same molecule, the “cytoxicity to lymphocytes LcV, LC50” value in data set [1] (highest concentration 10 μg/mL) is 9.70 µg/mL. Further, in data set [2], the “two-way mixed lymphocyte reaction” value was 19.0 ng/mL and the IC50 came to 18 nM. Besides, in data set [3], the “cytotoxicity to lymphocytes LbV, LC50” value was found to be 0.22 µM.
With `CC[C@@H](C)[C@H]1NC(=O)[C@@H](NC(=O)[C@@H](CC(C)C)N(C)C(=O)OCc2ccccc2)[C@@H](C)OC(=O)[C@H](Cc2ccc(OC)cc2)N(C)C(=O)[C@@H]2CCCN2C(=O)[C@H](CC(C)C)NC(=O)[C@@H](C)C(=O)[C@H](C(C)C)OC(=O)C[C@@H]1O` [Compound 5, Z-[(3S,4R,5R)-Ist^2]Didemnin A] (Cbz-[dNMeL]T[X5]LP[NMeY](Me); ester 2-C), the “cytoxicity to lymphocytes LcV, LC50” value in data set [1] was above 9.3 µM; in data set [1] (highest concentration 10 μg/mL), above 10 µg/mL. The “two-way mixed lymphocyte reaction” value in data set [2] was 0.30 ng/mL. The IC50 in data set [2] stood at 0.28 nM. Further, the “cytotoxicity to lymphocytes LbV, LC50” value in data set [3] turned out to be 0.012 µM.
On the same counts, the results for `CC[C@H](C)[C@@H]1NC(=O)[C@@H](NC(=O)[C@@H](CC(C)C)N(C)C(=O)OCc2ccccc2)[C@@H](C)OC(=O)[C@H](Cc2ccc(OC)cc2)N(C)C(=O)[C@@H]2CCCN2C(=O)[C@H](CC(C)C)NC(=O)[C@@H](C)C(=O)[C@H](C(C)C)OC(=O)C[C@@H]1O` [Compound 6, Z-[(3S,4S,5S)-Ist^2]Didemnin A] (Cbz-[dNMeL]T[X3]LP[NMeY](Me); ester 2-C) are above 9.3 µM, above 10 µg/mL, 290 ng/mL, 270 nM and 2.6 µM.
Consider `CC[C@H](C)[C@H]1NC(=O)[C@@H](NC(=O)[C@@H](CC(C)C)NC)[C@@H](C)OC(=O)[C@H](Cc2ccc(OC)cc2)N(C)C(=O)[C@@H]2CCCN2C(=O)[C@H](CC(C)C)NC(=O)[C@@H](C)C(=O)[C@H](C(C)C)OC(=O)C[C@@H]1OC(C)=O` [Compound 7, O-Acetyldidemnin A], for which the “cytoxicity to lymphocytes LcV, LC50” value was above 10.0 µM in data set [1] and above 10 µg/mL in data set [1] (highest concentration 10 μg/mL). The “two-way mixed lymphocyte reaction” value in data set [2] worked out at 100 ng/mL. In addition, the IC50 in data set [2] was 100 nM. For the same molecule, in data set [3], the “cytotoxicity to lymphocytes LbV, LC50” value was determined as 0.077 µM.
On the same counts, the results for `CC[C@H](C)[C@H]1NC(=O)[C@@H](NC(=O)[C@@H](CC(C)C)NC)[C@@H](C)OC(=O)[C@H](Cc2ccc(OC)cc2)N(C)C(=O)[C@@H]2CCCN2C(=O)[C@H](CC(C)C)NC(=O)[C@@H](C)[C@@H](O)[C@H](C(C)C)OC(=O)C[C@@H]1O` [Compound 10, [(2S,3R,4S)-H2 Hip^3]Didemnin A] (H-[dNMeL]T[X4]LP[NMeY](Me); ester 2-C) are above 10.6 µM, above 10 µg/mL, 29.0 ng/mL, 30.5 nM and 0.46 µM.
On the same counts, the results for `CC[C@H](C)[C@H]1NC(=O)[C@@H](NC(=O)[C@@H](CC(C)C)N(C)C(=O)[C@@H]2CCCN2C(=O)[C@H](C)O)[C@@H](C)OC(=O)[C@H](Cc2ccc(OC)cc2)N(C)C(=O)[C@@H]2CCCN2C(=O)[C@H](CC(C)C)NC(=O)[C@@H](C)C(=NO)[C@H](C(C)C)OC(=O)C[C@@H]1O` [Compound 11, [Hip^3 oxime]Didemnin B] are above 8.9 µM, above 10 µg/mL, 0.96 ng/mL, 0.85 nM and 0.0017 µM.
Turning to `CC[C@H](C)[C@H]1NC(=O)[C@@H](NC(=O)[C@@H](CC(C)C)NC)[C@@H](C)OC(=O)[C@H](Cc2ccc(OC)cc2)N(C)C(=O)[C@@H]2CCCN2C(=O)[C@H](CC(C)C)NC(=O)[C@@H](C)C(=O)[C@@H](C(C)C)OC(=O)C[C@@H]1O` [Compound 12, Epididemnin A1] (H-[dNMeL]T[X2]LP[NMeY](Me); ester 2-C), the “cytoxicity to lymphocytes LcV, LC50” value in data set [1] is above 10.6 µM. In addition, the “cytoxicity to lymphocytes LcV, LC50” value in data set [1] (highest concentration 10 μg/mL) was above 10 µg/mL. In addition, in data set [2], the “two-way mixed lymphocyte reaction” value was determined as 81.0 ng/mL and the IC50 is 86 nM. The “cytotoxicity to lymphocytes LbV, LC50” value in data set [3] came out at 0.051 µM.
With `CC[C@H](C)[C@H]1NC(=O)[C@@H](NC(=O)[C@@H](CC(C)C)N(C)C(=O)[C@@H]2CCCN2C(=O)[C@H](C)O)[C@@H](C)OC(=O)[C@H](Cc2ccc(O)cc2)NC(=O)[C@@H]2CCCN2C(=O)[C@H](CC(C)C)NC(=O)[C@@H](C)C(=O)[C@H](C(C)C)OC(=O)C[C@@H]1O` [Compound 13, Didemnin N], in data set [1], the “cytoxicity to lymphocytes LcV, LC50” value was above 9.20 µM. Besides, the “cytoxicity to lymphocytes LcV, LC50” value in data set [1] (highest concentration 10 μg/mL) is above 10 µg/mL. Further, in data set [2], the “two-way mixed lymphocyte reaction” value worked out at 37.0 ng/mL and the IC50 was determined as 34.2 nM. Moreover, the “cytotoxicity to lymphocytes LbV, LC50” value in data set [3] worked out at 0.21 µM.
With `CC[C@H](C)[C@H]1NC(=O)[C@@H](NC(=O)[C@@H](CC(C)C)N(C)C(=O)[C@@H]2CCCN2C(=O)[C@H](C)O)[C@@H](C)OC(=O)[C@H](CC2CCC(OC)CC2)N(C)C(=O)[C@@H]2CCCN2C(=O)[C@H](CC(C)C)NC(=O)[C@@H](C)C(=O)[C@H](C(C)C)OC(=O)C[C@@H]1O` (stereo partly shown) [Compound 15, [H6 Me2 Tyr6]Didemnin B], in data set [2], the “two-way mixed lymphocyte reaction” value amounted to 0.81 ng/mL and the IC50 is 0.72 nM. In data set [3], the “cytotoxicity to lymphocytes LbV, LC50” value is 0.0016 µM.
Take `O=P1(N(CCCl)CCCl)NCCCO1` (stereo not shown) [Cyclophosphamide, reference compound]: in data set [4], the “alive day 8” value was 100%, the “body weight change day 5” value is -2.5 g, the “body weight day 5 (g ± SD)” value is on record as 13.8 ± 0.4 g and the “index (spleen wt. treated/spleen wt. syngenetic injection)” value amounted to 0.14. In addition, in data set [4], the “mean group spleen wt. normalized to day 8 body weight” value was 0.4.

These data come from patent US6156724A, “Uses of didemnins as immunomodulating agents” (priority 1998, dated 2000).
